In patent US10954287B2, “Ras binding peptides and methods of use” (Ra Pharmaceuticals, Inc., priority 2016, dated 2021):

Test system: GMPPNP-loaded H-Ras or GTP-loaded K-Ras
Experiment: Fluorescence polarization competition assay with TAMRA-labeled probe R4007
Type: binding, human
Details: 120 nM Ras, 30 nM probe R4007, 60 minutes at room temperature; read-out: Probe displacement (nM IC50)
Procedure: R4000 was evaluated for competition with a TAMRA labeled probe (R4007) based on peptide R4000. The assay was performed in 384-well black, non-binding plates (Greiner Bio-One, Monroe, N.C.). GMPPNP-loaded H-Ras or GTP-loaded K-Ras, diluted in FP assay buffer (20 mM Tris-HCl, pH 7.5, 50 mM NaCl, 5 mM MgCl2, 1 mM EDTA, 0.002% Triton-X-100) for a final concentration of 120 nM was incubated with 30 nM R4007 for 20 minutes at room temperature. R4000 was serially diluted, added to the assay and incubated for 60 minutes at room temperature. Fluorescence polarization was detected with a SpectraMax Paradigm plate reader (Molecular Devices, Sunnyvale, Calif.) using the Rhodamine FP detection cartridge (535 nm/595 nm). Data was analyzed using GraphPad Prism and Ki determined using One Site Ki Curve fitting model.
Peptides were evaluated for competition with R4007, a probe consisting of TAMRA-labeled R4000, using a fluorescence polarization (FP) competition assay. The assay was performed in 384-well black, non-binding plates (Greiner Bio-One, Monroe, N.C.). GMPPNP-loaded H-Ras or GTP- loaded K-Ras, diluted in FP assay buffer (20 mM Tris-HCl, pH 7.5, 50 mM NaCl, 5 mM MgCl2, 1 mM EDTA, 0.002% Triton-X-100) for a final concentration of 120 nM was incubated with 30 nM probe for 20 minutes at room temperature. Peptides were serially diluted, added to the assay and incubated for 60 minutes at room temperature. Fluorescence was detected with a SpectraMax Paradigm plate reader (Molecular Devices, Sunnyvale, Calif.) using the Rhodamine FP detection cartridge (535 nm/595 nm). Data was analyzed and Ki determined using a One Site Ki Curve fitting model. Percent inhibition for each data point was calculated relative to the maximal binding in test compound-free control wells (showing no probe displacement) and Ras-free control wells (showing no probe binding) and the half-maximal inhibitory concentration (IC50), based on probe displacement, was determined.

Compound | IC50
CCC[C@H](NC(C)=O)C(=O)N[C@H]1CSCc2cccc(c2)CSC[C@@H](C(=O)NCC(=O)N[C@@H](CS)C(=O)N[C@@H](CCSC)C(=O)N[C@@H](CO)C(=O)N[C@@H](CS)C(=O)N[C@@H](CCCCN)C(=O)N[C@@H](CS)C(=O)N[C@H](C(=O)N[C@@H](CC(C)C)C(=O)N[C@@H](CO)C(N)=O)C(C)C)NC(=O)CN(C)C(=O)[C@H](Cc2ccc(F)cc2)N(C)C(=O)[C@H](Cc2ccc(O)cc2)NC(=O)[C@H](Cc2c[nH]c3ncccc23)NC(=O)[C@H](c2ccccc2)NC(=O)[C@H](C)N(C)C(=O)[C@H](Cc2c[nH]cn2)NC(=O)[C@H](CCCCN)NC(=O)[C@H](C(C)(C)C)NC(=O)[C@H](Cc2ccc(O)cc2)NC1=O (relative stereo) [Compound R4116, ACE-NVA-CYS*-TYR-TBG-LYS-HIS-NMA-PHG-7AW-TYR-MFF-SAR-CYS*-GLY-CYS-MET-SER-CYS-LYS-CYS-VAL-LEU-SER-NH2] | 35.7 nM
CCC[C@H](NC(C)=O)C(=O)N[C@H]1CSCc2cccc(c2)CSC[C@@H](C(N)=O)NC(=O)CN(C)C(=O)[C@H](Cc2ccc(F)cc2)N(C)C(=O)[C@H](Cc2ccc(O)cc2)NC(=O)[C@H](Cc2c[nH]c3ncccc23)NC(=O)[C@H](c2ccccc2)NC(=O)[C@H](C)N(C)C(=O)[C@H](Cc2c[nH]cn2)NC(=O)[C@H](CCCCN)NC(=O)[C@H](C(C)(C)C)NC(=O)[C@H](Cc2ccc(O)cc2)N(C)C1=O (relative stereo) [Compound R4117, ACE-NVA-CYS*-NMY-TBG-LYS-HIS-NMA-PHG-7AW-TYR-MFF-SAR-CYS*-NH2] | 48.3 nM
CCC[C@H](NC(C)=O)C(=O)N[C@H]1CSCc2cccc(c2)CSC[C@@H](C(N)=O)NC(=O)[C@H](CO)N(C)C(=O)[C@H](Cc2ccc(F)cc2)N(C)C(=O)[C@H](Cc2ccc(O)cc2)NC(=O)[C@H](Cc2c[nH]c3ncccc23)NC(=O)[C@H](c2ccccc2)NC(=O)[C@H](C)N(C)C(=O)[C@H](Cc2c[nH]cn2)NC(=O)[C@H](CCCCN)NC(=O)[C@H](C(C)(C)C)NC(=O)[C@H](Cc2ccc(O)cc2)NC1=O (relative stereo) [Compound R4118, ACE-NVA-CYS*-TYR-TBG-LYS-HIS-NMA-PHG-7AW-TYR-MFF-NMS-CYS*-NH2] | 51.5 nM
CCC[C@H](NC(C)=O)C(=O)N[C@H]1CSCc2cccc(c2)CSC[C@@H](C(=O)NCC(=O)N[C@@H](CS)C(=O)NCC(=O)N[C@H](C(=O)NCC(=O)N[C@H](C(=O)N[C@@H](CCSC)C(=O)O)[C@@H](C)CC)C(C)C)NC(=O)CN(C)C(=O)[C@H](Cc2ccc(F)cc2)N(C)C(=O)[C@H](Cc2ccc(O)cc2)NC(=O)[C@H](Cc2c[nH]c3ncccc23)NC(=O)[C@H](c2ccccc2)NC(=O)[C@H](C)N(C)C(=O)[C@H](Cc2c[nH]cn2)NC(=O)[C@H](CCCCN)NC(=O)[C@H](C(C)(C)C)NC(=O)[C@H](Cc2ccc(O)cc2)NC1=O (relative stereo) [Compound R4119, ACE-NVA-CYS*-TYR-TBG-LYS-HIS-NMA-PHG-7AW-TYR-MFF-SAR-CYS*-GLY-CYS-GLY-VAL-GLY-ILE-MET] | 64.4 nM
CCC[C@H](NC(C)=O)C(=O)N[C@H]1CSCc2cccc(c2)CSC[C@@H](C(=O)NCC(=O)NCC(=O)NCC(=O)N[C@@H](CS)C(=O)N[C@@H](C)C(=O)N[C@H](C(=O)N[C@@H](CC(C)C)C(N)=O)[C@@H](C)CC)NC(=O)CN(C)C(=O)[C@H](Cc2ccc(F)cc2)N(C)C(=O)[C@H](Cc2ccc(O)cc2)NC(=O)[C@H](Cc2c[nH]c3ncccc23)NC(=O)[C@H](c2ccccc2)NC(=O)[C@H](C)N(C)C(=O)[C@H](Cc2c[nH]cn2)NC(=O)[C@H](CCCCN)NC(=O)[C@H](C(C)(C)C)NC(=O)[C@H](Cc2ccc(O)cc2)NC1=O (relative stereo) [Compound R4120, ACE-NVA-CYS*-TYR-TBG-LYS-HIS-NMA-PHG-S7AW-TYR-MFF-AR-CYS*-GLY-GLY-GLY-CYS-ALA-ILE-LEU-NH2] | 65.7 nM
CCC[C@H](NC(C)=O)C(=O)N[C@H]1CSCc2cccc(c2)CSC[C@@H](C(N)=O)NC(=O)[C@H](C)N(C)C(=O)[C@H](Cc2ccc(F)cc2)N(C)C(=O)[C@H](Cc2ccc(O)cc2)NC(=O)[C@H](Cc2c[nH]c3ncccc23)NC(=O)[C@@H](c2ccccc2)NC(=O)[C@H](C)N(C)C(=O)[C@H](Cc2c[nH]cn2)NC(=O)[C@H](CCCCN)NC(=O)[C@H](C(C)(C)C)NC(=O)[C@H](Cc2ccc(O)cc2)NC1=O (relative stereo) [Compound R4121, ACE-NVA-CYS*-TYR-TBG-LYS-HIS-NMA-DPHG-7AW-TYR-MFF-NMA-CYS*-NH2] | 73 nM
C=CC(=O)NCCC[C@@H]1NC(=O)[C@H](C)NC(=O)[C@H](C(C)(C)C)NC(=O)[C@H](Cc2ccc(O)cc2)NC(=O)[C@@H](NC(=O)[C@H](CCC)NC(C)=O)CSCc2cccc(c2)CSC[C@@H](C(N)=O)NC(=O)CN(C)C(=O)[C@H](Cc2ccc(F)cc2)N(C)C(=O)[C@H](Cc2ccc(O)cc2)NC(=O)[C@H](Cc2c[nH]c3ncccc23)NC(=O)[C@H](c2ccccc2)NC(=O)[C@H](C)N(C)C1=O (relative stereo) [Compound R4122, ACE-NVA-CYS*-TYR-TBG-ALA-ORAC-NMA-PHG-7AW-TYR-MFF-SAR-CYS*-NH2] | 77.1 nM
C=CC(=O)NCCCC[C@@H]1NC(=O)[C@H](C)NC(=O)[C@H](C(C)(C)C)NC(=O)[C@H](Cc2ccc(O)cc2)NC(=O)[C@@H](NC(=O)[C@H](CCC)NC(C)=O)CSCc2cccc(c2)CSC[C@@H](C(N)=O)NC(=O)CN(C)C(=O)[C@H](Cc2ccc(F)cc2)N(C)C(=O)[C@H](Cc2ccc(O)cc2)NC(=O)[C@H](Cc2c[nH]c3ncccc23)NC(=O)[C@H](c2ccccc2)NC(=O)[C@H](C)N(C)C1=O (relative stereo) [Compound R4123, ACE-NVA-CYS*-TYR-TBG-ALA-KAC-NMA-PHG-7AW-TYR-MFF-SAR-CYS*-NH2] | 85 nM
C[C@H]1C(=O)N[C@@H](c2ccccc2)C(=O)N[C@@H](Cc2c[nH]c3ncccc23)C(=O)N[C@@H](Cc2ccc(O)cc2)C(=O)N(C)[C@@H](Cc2ccc(F)cc2)C(=O)N(C)CC(=O)NCCOCCOCCC(=O)N[C@@H](Cc2ccc(O)cc2)C(=O)N[C@@H](C(C)(C)C)C(=O)N[C@@H](CCCCN)C(=O)N[C@@H](Cc2c[nH]cn2)C(=O)N1C (relative stereo) [Compound R4124, PEG2PA*-TYR-TBG-LYS-HIS-NMA-PHG-7AW-TYR-MFF-SAR*] | 88.4 nM
CCC[C@H](NC(C)=O)C(=O)N[C@H]1CSCc2cccc(c2)CSC[C@@H](C(N)=O)NC(=O)CN(C)C(=O)[C@H](Cc2ccc(F)cc2)N(C)C(=O)[C@H](Cc2ccc(O)cc2)NC(=O)[C@H](Cc2c[nH]c3ncccc23)NC(=O)[C@H](c2ccccc2)NC(=O)[C@H](CCCCN)N(C)C(=O)[C@H](Cc2c[nH]cn2)NC(=O)[C@H](C)NC(=O)[C@H](C(C)(C)C)NC(=O)[C@H](Cc2ccc(O)cc2)NC1=O (relative stereo) [Compound R4125, ACE-NVA-CYS*-TYR-TBG-ALA-HIS-NMK-PHG-7AW-TYR-MFF-SAR-CYS*-NH2] | 110 nM
CCC[C@H](NC(C)=O)C(=O)N[C@H]1CSCc2cccc(c2)CSC[C@@H](C(N)=O)NC(=O)CN(C)C(=O)[C@H](Cc2ccc(F)cc2)N(C)C(=O)[C@H](Cc2ccc(O)cc2)NC(=O)[C@H](Cc2c[nH]c3ncccc23)NC(=O)[C@H](c2ccccc2)NC(=O)[C@H](C)N(C)C(=O)[C@H](C)NC(=O)[C@H](CCCCN)NC(=O)[C@H](C(C)(C)C)NC(=O)[C@H](Cc2ccc(O)cc2)NC1=O (relative stereo) [Compound R4126, ACE-NVA-CYS*-TYR-TBG-LYS-ALA-NMA-PHG-7AW-TYR-MFF-SAR-CYS*-NH2] | 127 nM
CCC[C@H](NC(C)=O)C(=O)N[C@H]1CSCc2cccc(c2)CSC[C@@H](C(=O)NCC(=O)NCC(=O)NCC(=O)N[C@@H](CS)C(=O)N[C@H](C(=O)N[C@H](C(=O)N[C@@H](CCSC)C(N)=O)[C@@H](C)CC)C(C)C)NC(=O)CN(C)C(=O)[C@H](Cc2ccc(F)cc2)N(C)C(=O)[C@H](Cc2ccc(O)cc2)NC(=O)[C@H](Cc2c[nH]c3ncccc23)NC(=O)[C@H](c2ccccc2)NC(=O)[C@H](C)N(C)C(=O)[C@H](Cc2c[nH]cn2)NC(=O)[C@H](CCCCN)NC(=O)[C@H](C(C)(C)C)NC(=O)[C@H](Cc2ccc(O)cc2)NC1=O (relative stereo) [Compound R4127, ACE-NVA-CYS*-TYR-TBG-LYS-HIS-NMA-PHG-7AW-TYR-MFF-SAR-CYS*-GLY-GLY-GLY-CYS-VAL-ILE-MET-NH2] | 148 nM
CCC[C@H](NC(C)=O)C(=O)N[C@H]1CSCc2cccc(c2)CSC[C@@H](C(=O)N[C@H](CO)C(=O)N[C@H](C)C(=O)N[C@@H](CCCCN)C(=O)N[C@@H](CSSC(C)(C)C)C(=O)N[C@H](C(=O)N[C@H](C(=O)N[C@@H](CCSC)C(=O)O)[C@@H](C)CC)C(C)C)NC(=O)CN(C)C(=O)[C@H](Cc2ccc(F)cc2)N(C)C(=O)[C@H](Cc2ccc(O)cc2)NC(=O)[C@H](Cc2c[nH]c3ncccc23)NC(=O)[C@H](c2ccccc2)NC(=O)[C@H](C)N(C)C(=O)[C@H](Cc2c[nH]cn2)NC(=O)[C@H](CCCCN)NC(=O)[C@H](C(C)(C)C)NC(=O)[C@H](Cc2ccc(O)cc2)N(C)C1=O (relative stereo) [Compound R4129, ACE-NVA-CYS*-NMY-TBG-LYS-HIS-NMA-PHG-7AW-TYR-MFF-SAR-CYS*-DSER-DALA-LYS-TDSPA-VAL-ILE-MET] | 227 nM
